# Source: patent US20040214221A1, “High density labeling of DNA with modified or "chromophore" carrying nucleotides and DNA polymerases used” (priority 1999, published 2004)
# Where two headings read alike, the source gives them in different places.
# Assays:
# Tgo exo^− polymerase = assay type: biochemical, Thermococcus species
# [1] = tested on: Klenow-fragment of Chy DNA pol I; experiment: Primer extension with modified dNTPs, Chy Klenow polymerase; assay type: biochemical, Carboxydothermus hydrogenoformans; conditions: template NucT15
# Vent exo^− polymerase = Vent exo^− polymerase (Thermococcus litoralis, UniProt P30317, D141A/DEL1082-1471/DEL495-1032/E143A); experiment: Primer extension with modified dNTPs, Vent exo- polymerase; assay type: biochemical, Thermococcus species; conditions: template NucT15 (18 possible)
# Sequence of Vent exo^− polymerase (P30317 with tags, fused parts or gaps D141A/DEL1082-1471/DEL495-1032/E143A): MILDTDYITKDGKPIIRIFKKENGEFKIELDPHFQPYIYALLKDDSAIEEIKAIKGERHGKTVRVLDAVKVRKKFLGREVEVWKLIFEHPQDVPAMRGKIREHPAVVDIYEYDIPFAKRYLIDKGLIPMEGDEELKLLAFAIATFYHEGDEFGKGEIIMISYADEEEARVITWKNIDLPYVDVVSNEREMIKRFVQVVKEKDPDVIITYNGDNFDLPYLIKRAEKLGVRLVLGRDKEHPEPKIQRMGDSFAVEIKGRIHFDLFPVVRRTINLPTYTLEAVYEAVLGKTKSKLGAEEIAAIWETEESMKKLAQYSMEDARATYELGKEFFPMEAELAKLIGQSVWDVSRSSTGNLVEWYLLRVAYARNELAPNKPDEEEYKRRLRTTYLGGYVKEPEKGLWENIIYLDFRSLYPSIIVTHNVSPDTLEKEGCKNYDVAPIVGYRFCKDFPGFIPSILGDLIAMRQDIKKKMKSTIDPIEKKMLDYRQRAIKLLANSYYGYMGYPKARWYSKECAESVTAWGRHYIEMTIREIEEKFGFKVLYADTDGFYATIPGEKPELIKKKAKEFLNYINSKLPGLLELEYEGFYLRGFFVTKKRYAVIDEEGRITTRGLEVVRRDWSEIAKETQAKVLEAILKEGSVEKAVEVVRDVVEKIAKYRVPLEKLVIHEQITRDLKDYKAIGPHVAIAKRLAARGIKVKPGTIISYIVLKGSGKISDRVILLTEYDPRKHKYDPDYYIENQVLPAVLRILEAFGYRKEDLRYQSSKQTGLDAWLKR
molecule,measurement,setting,value
Rhodamin-green-5(6)-carboxyamido-[5-(3-aminoallyl)-2′desoxy-uridin-5′-triphosphate] [Rhodamine-green-dUTP],insertions in neighbouring positions,Tgo exo^− polymerase,15-16
DIG-11-dUTP,product at lower polymerase concentration,Tgo exo^− polymerase,full length products were detectable
same,substrate activity / incorporation,Tgo exo^− polymerase,high substrate activity
Cc1c(CC(=O)NCCCCCC(=O)NC/C=C/c2cn([C@H]3C[C@H](O)[C@@H](COP(=O)(O)OP(=O)(O)OP(=O)(O)O)O3)c(=O)[nH]c2=O)c(=O)oc2cc(N)ccc12 [AMCA-6-dUTP],substrate activity,[1],high substrate activity
same,elongation of Hex7c7Gd stretch with dUTP derivative,Tgo exo^− polymerase,complete elongation
O=C(CCCCCNC(=O)CCCNC(=O)CCCC[C@@H]1SC[C@@H]2NC(=O)N[C@@H]21)NC/C=C/c1cn([C@H]2C[C@H](O)[C@@H](COP(=O)(O)OP(=O)(O)OP(=O)(O)O)O2)c(=O)[nH]c1=O [Biotin-16-dUTP],elongation of Hex7c7Gd stretch with dUTP derivative,Tgo exo^− polymerase,a high molecular weight product is formed
same,insertions in neighbouring positions,Tgo exo^− polymerase,18
same,product at lower polymerase concentration,Tgo exo^− polymerase,full length products were detectable
"CCCCC#Cc1cn([C@H]2C[C@H](O)[C@@H](COP(=O)(O)OP(=O)(O)OP(=O)(O)O)O2)c2ncnc(N)c12 [Hex^7c^7Ad, 7-Hexinyl-7-Desaza-dATP]",adjacent positions into which derivative was incorporated,Tgo exo^− polymerase,15
"CCCCC#Cc1cn([C@H]2C[C@H](O)[C@@H](COP(=O)(O)OP(=O)(O)OP(=O)(O)O)O2)c2nc(N)[nH]c(=O)c12 [Hex^7c^7Gd, 7-Hexinyl-7-desaza-dGTP]",consecutive incorporations,Tgo exo^− polymerase,five
same,subsequent positions polymerized,Tgo exo^− polymerase,up to 21
Rhodamin-green-5(6)-carboxyamido-ε-aminocaproyl-[5-(3-aminoallyl)-2′desoxy-uridin-5′-triphosphate] [Rhodamine-green-X-dUTP],insertions in neighbouring positions,Tgo exo^− polymerase,up to 18
same,major products (number of insertions),Tgo exo^− polymerase,13-17
same,substrate activity / incorporation,Tgo exo^− polymerase,very good substrate for the polymerase
Cy5-10-dUTP,positions inserted,Vent exo^− polymerase,13
Fluorescein-12-dUTP,elongation of Hex7c7Gd stretch with dUTP derivative,"Tgo exo^− polymerase; template NucT3, 50 μM each, 0,1 and 1 unit polymerase",complete elongation
same,product at lower polymerase concentration,"Tgo exo^− polymerase; template NucT15, 0,1 unit/reaction",full length products were detectable
TMR-6-dUTP [TM-Rhodamine-dUTP],positions inserted,Vent exo^− polymerase,14
